Results on two compounds are retold here after patent US20050064027A1, “Bioadhesive drug delivery system with enhanced gastric retention” (Spherics, Inc., priority 2001, published 2005).

The data set is described as follows: Release kinetics from multi-drug macrospheres. It counts as physicochemical. The following applies: salicylate in outer Eudragit RL 100 coating, acyclovir in core. From the text:
Fluidized bed spraying of 5% RL 100-coated 40% Acyclovir (ACV) loaded cores with 25% sodium salicylate w/w in a 10% RL 100-coating was then used to produce multi-drug macrospheres.
The starting material was the product of Example 2 (5% w/w RL 100 coated 40% ACV cores and overcoat with 10% RL 100 coating containing 25% w/w sodium salicylate). Overcoating with a 10% w/w coating of RL100 containing 25% w/w salicylate was used to produce a biphasic drug system. Sodium salicylate should be quickly delivered followed by acyclovir release. A 176.0 g lot of beads, 40% w/w Acyclovir (1.4-2.36 mm) was used as the cores for the coatings.
The release kinetics of the two drugs from the macrospheres of Example 6 were then determined. FIG. 6 is a graph of release of acyclovir (ACV) and salicylate as a function of percent total acyclovir loading, over time (in hours), from macrospheres wherein the salicylate is encapsulated in an outer Eudragit® RL 100 coating and the acyclovir is encapsulated in the core. The outer drug loading is used to achieve rapid release (three hours) as compared to more long term release of the core drug (24 hours).

As to `Nc1nc2c(ncn2COCCO)c(=O)[nH]1` [acyclovir], the “time of release of drug from multi-drug macrospheres” value (from here on “time of release of drug”) stood at 24 h.
`O=C([O-])c1ccccc1O.[Na+]` [sodium salicylate]: the “time of release of drug” value is not above 3 h. The “time of release of drug” value (listed as salicylate) is “three”.
